Reference: the NIST ThermoML archive (doi:10.1016/j.tca.2009.06.015)

Experiment: xn = mol fraction of the nth substance listed
Details: 101 kPa, Liquid; for mass density: Vibrating tube method; for viscosity: Capillary tube (Ostwald / Ubbelohde) method

CCCC(C)O (stereo not given) [pentan-2-ol] + CC#N
Details | mass density, 293.15 K [kg/m3] | mass density, 298.15 K [kg/m3] | mass density, 303.15 K [kg/m3] | mass density, 308.15 K [kg/m3] | viscosity, 298.15 K [mPa·s] | viscosity, 303.15 K [mPa·s] | viscosity, 308.15 K [mPa·s]
x2 = 0 | – | 805.24 | 801.13 | 796.94 | 3.478 | – | –
x2 = 0.116 | – | 802.61 | 798.39 | 794.1 | 2.17 | 1.474 | 1.296
x2 = 0.1727 | – | 801.25 | 796.93 | 792.65 | 1.804 | 1.288 | 1.15
x2 = 0.2827 | – | 798.55 | 794.05 | 789.63 | 1.362 | 1.069 | 0.9576
x2 = 0.3546 | – | 796.68 | 792.08 | 787.6 | 1.125 | 0.9367 | 0.846
x2 = 0.4458 | – | 794.17 | 789.54 | 784.92 | 0.9044 | 0.7975 | 0.7168
x2 = 0.5366 | – | 791.6 | 786.91 | 782.17 | 0.7392 | 0.6615 | 0.6057
x2 = 0.6488 | – | 788.28 | 783.41 | 778.55 | 0.5884 | 0.5492 | 0.5051
x2 = 0.7671 | – | 784.54 | 779.52 | 774.47 | 0.4715 | 0.4429 | 0.4111
x2 = 0.8793 | – | 780.88 | 775.68 | 770.45 | 0.391 | 0.3617 | 0.3442
x2 = 0.9578 | 783.59 | 778.28 | 772.96 | 767.48 | 0.3537 | 0.3311 | 0.3202
